According to patent publication US9402847B2, “Combinations comprising (S)-4-amino-N-(1-(4-chlorophenyl)-3-hydroxypropyl)-1-(7H-pyrrolo[2,3-d]pyrimidin-4-yl)piperidine-4-carboxamide” (AstraZeneca AB, priority 2011, dated 2016):

How the values were obtained:
[1] = system: HCC-1187 breast cancer xenografts; experiment: HCC-1187 breast cancer xenografts in nude mice, tumour volume by calipers; type: in vivo; details: for efficacy of combination versus docetaxel monotherapy: AZD5363 300 mg/kg once daily, 4 days on, 3 days off, 3 weekly cycles
Experimental: In these experiments the indicated agent(s) where being administered in 2 weekly dosage cycles, then there was no dosing in the 3rd week (days 15-21 inclusive). The indicated agent(s) were again administered in further weekly dosage cycles from week 4 onwards.
Animals were dosed with compounds over a 3 week period (3 weekly cycles of docetaxel and 3 weekly cycles of AZD5363 300 mg/kg once daily, 4 days on, 3 days off). […] Following the 3 weekly cycles of treatment, animals were not treated with compound, and recovery of tumour growth was monitored.
(§1) Tumour cells were implanted subcutaneously into the flank of nude mice, then a tumour was allowed to grow in each mouse until it reached the desired starting volume for the particular experiment (approximately 0.6 cm^3 for the BT474c experiment, and approximately 0.15 cm^3 for the HCC-1187 experiment). The mice were then randomised into groups—each group destined to receive one of the four treatment regimes described in each of FIGS. 1 and 2. The mice were then dosed as described in FIGS. 1 and 2, where docetaxel was administered intravenously, and Compound (I) (as the free base) was administered orally. Calipers were used to monitor tumour sizes during these experiments, and the results are plotted on the graphs of FIGS. 1 and 2.
(§2) The BT-474 tumour cell line (human mammary carcinoma) was obtained from Dr Jose Baselga (at Laboratorio Recerca Oncologica, Paseo Vall D'Hebron 119-129, Barcelona 08035, Spain). This cell line was subcloned and a certain population referred herein to as BT474c was obtained. The HCC-1187 cell line is available from ATCC (www.atcc.org).

BT474c model = experiment: BT474c tumour xenograft in nude mice, tumour volume by calipers; type: in vivo
Experimental: as §1, §2

NC1(C(=O)N[C@@H](CCO)c2ccc(Cl)cc2)CCN(c2ncnc3[nH]ccc23)CC1 [Compound (I), (S)-4-amino-N-(1-(4-chlorophenyl)-3-hydroxypropyl)-1-(7H-pyrrolo[2,3-d]pyrimidin-4-yl)piperidine-4-carboxamide]
antitumour activity, intermittent versus continuous schedule of Compound (I) ([1]; FIG. 2, HCC-1187 model, 55-day period, in combination with weekly cycles of docetaxel): similarly sustained antitumour activity | efficacy of combination versus docetaxel monotherapy ([1]; FIG. 3, docetaxel administered 24 hours after the final dose of AZD5363): antagonistic | efficacy of combination versus docetaxel monotherapy ([1]; FIG. 3, docetaxel dosed 1 hour (same day) before first administration of AZD5363): greater efficacy than docetaxel monotherapy | efficacy of combination versus docetaxel monotherapy ([1]; FIG. 3, docetaxel dosed 24 hours (day before) before first administration of AZD5363): greater efficacy than docetaxel monotherapy | tumour growth delay after the 3 weekly cycles of treatment ([1]; FIG. 3, docetaxel administered 1 hour before AZD5363, compared with the other schedules investigated): longest tumour growth delay | sensitisation to docetaxel (BT474c model; BT474c model, single dose of docetaxel): greatly sensitise | effect at regulating tumour volume, combination compared with either component alone (BT474c model; Compound (I) in combination with docetaxel): more than an additive effect | change in tumour volume (BT474c model; FIG. 1, BT474c model, 16-day period, Compound (I) free base orally in combination with docetaxel intravenously): significant tumour shrinkage
